# Data taken from ChEMBL document CHEMBL3714739, “Compounds for the treatment of pain and screening methods therefor” (2008).
# Experiments:
# [1] = target: Mas-related G-protein coupled receptor member X1 (Homo sapiens) (UniProt Q96LB2); assay: Activation of human MrgX1 receptor expressed in NIH/3T3 cells incubated for 5 days by beta-galactosidase reporter gene assay relative to Bam22; type: cell-based; conditions: NIH3T3
# [2] = target: T1, Mas-related G-protein coupled receptor member X2 (Homo sapiens) (UniProt Q96LB1); assay: Activation of human MrgX2 receptor expressed in NIH/3T3 cells incubated for 5 days by beta-galactosidase reporter gene assay relative to STIA; type: cell-based; conditions: NIH3T3
# T1 sequence (whole entry): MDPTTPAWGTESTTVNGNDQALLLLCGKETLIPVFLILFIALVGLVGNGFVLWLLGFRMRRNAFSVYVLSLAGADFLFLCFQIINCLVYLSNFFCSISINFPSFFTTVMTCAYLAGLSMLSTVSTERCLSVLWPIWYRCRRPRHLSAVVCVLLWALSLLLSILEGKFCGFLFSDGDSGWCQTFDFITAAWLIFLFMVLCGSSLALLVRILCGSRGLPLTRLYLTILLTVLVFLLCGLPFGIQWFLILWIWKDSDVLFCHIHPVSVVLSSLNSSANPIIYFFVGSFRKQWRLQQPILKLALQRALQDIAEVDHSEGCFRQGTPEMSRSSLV
# Mas-related G-protein coupled receptor member X1 (Homo sapiens), sequence (Q96LB2 whole entry): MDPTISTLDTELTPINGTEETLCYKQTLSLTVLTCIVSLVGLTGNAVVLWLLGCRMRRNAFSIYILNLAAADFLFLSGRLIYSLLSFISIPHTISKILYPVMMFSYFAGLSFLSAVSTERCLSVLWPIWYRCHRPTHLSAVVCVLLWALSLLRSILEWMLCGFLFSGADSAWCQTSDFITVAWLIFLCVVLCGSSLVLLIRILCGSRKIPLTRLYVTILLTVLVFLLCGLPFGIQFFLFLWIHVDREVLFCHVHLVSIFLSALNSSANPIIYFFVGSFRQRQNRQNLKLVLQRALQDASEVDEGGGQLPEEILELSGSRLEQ
Efficacy [1],Efficacy [2],SMILES
221%,2%,N=C(N)NCCC[C@H](C(N)=O)n1c(-c2cccc(Oc3ccccc3)c2)nc2cc(C(=O)Nc3ccc4cn[nH]c4c3)ccc21
95%,21%,N=C(N)NCCC[C@@H](C(N)=O)n1c(-c2cccc(Oc3ccccc3)c2)nc2cc(C(=O)NCc3cccc(C(F)(F)F)c3)ccc21
203%,6%,N=C(N)NCCC[C@H](C(N)=O)n1c(-c2cccc(Oc3ccccc3)c2)nc2cc(C(=O)N3CCOCC3)ccc21
